# Reference: US9896476B1, “Glycyrrhetic acid derivatives” (KING SAUD UNIVERSITY, priority 2017, dated 2018)
# “And” between values parts separate entries of the source, which are not always exact repeats. Equal values may be shown once.
# Experiments:
# H+/K+-ATPase = molecular target: T1, H+/K+-ATPase (Sus scrofa, UniProt P19156); assay: H+/K+-ATPase (proton pump) inhibition in membrane vesicles of stomach mucosa; type: biochemical; settings: pig gastric membrane vesicles, 37° C.; pre-incubation pH (6.0 or 7.4) not given
# T1 construct: Membrane vesicles containing H^+/K^+-ATPase were prepared from pig stomachs; from tissue; host or cells: pig gastric mucosa membrane vesicles
# T1 sequence (P19156 2-1034 limits assumed): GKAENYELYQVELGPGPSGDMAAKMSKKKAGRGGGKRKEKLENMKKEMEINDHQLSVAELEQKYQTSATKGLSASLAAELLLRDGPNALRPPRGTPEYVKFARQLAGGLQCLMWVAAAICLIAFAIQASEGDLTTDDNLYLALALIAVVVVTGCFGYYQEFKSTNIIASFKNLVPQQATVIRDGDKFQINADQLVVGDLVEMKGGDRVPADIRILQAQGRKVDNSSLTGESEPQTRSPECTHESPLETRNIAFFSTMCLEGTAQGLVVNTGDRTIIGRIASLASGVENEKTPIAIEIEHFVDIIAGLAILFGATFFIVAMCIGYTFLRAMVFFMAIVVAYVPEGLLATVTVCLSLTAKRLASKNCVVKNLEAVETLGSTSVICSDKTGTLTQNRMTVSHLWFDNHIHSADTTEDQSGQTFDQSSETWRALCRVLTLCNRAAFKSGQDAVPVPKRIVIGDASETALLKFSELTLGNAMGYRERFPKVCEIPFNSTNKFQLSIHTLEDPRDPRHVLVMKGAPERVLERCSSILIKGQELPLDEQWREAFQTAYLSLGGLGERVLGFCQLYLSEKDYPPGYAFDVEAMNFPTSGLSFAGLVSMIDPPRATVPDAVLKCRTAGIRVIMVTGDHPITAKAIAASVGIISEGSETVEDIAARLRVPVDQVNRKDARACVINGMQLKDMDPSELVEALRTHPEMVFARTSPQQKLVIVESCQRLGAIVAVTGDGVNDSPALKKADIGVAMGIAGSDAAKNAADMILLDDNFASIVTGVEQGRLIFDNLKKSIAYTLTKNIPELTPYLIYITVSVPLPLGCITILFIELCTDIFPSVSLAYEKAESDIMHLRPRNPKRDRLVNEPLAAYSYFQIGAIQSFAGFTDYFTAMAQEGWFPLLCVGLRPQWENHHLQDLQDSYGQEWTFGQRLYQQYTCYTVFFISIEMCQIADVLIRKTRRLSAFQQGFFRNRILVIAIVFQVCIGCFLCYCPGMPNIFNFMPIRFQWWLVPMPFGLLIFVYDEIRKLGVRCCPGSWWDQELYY
# T1 sequence (P18434 whole entry partner): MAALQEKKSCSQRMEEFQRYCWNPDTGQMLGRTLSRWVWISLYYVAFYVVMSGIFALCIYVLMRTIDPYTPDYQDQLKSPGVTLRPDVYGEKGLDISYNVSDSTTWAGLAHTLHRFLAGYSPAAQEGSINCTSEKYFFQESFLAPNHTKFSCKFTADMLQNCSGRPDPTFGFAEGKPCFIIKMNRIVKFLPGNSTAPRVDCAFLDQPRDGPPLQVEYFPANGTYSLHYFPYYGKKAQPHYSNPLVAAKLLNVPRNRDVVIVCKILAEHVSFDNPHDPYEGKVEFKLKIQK
# Method: Membrane vesicles containing H^+/K^+-ATPase were prepared from pig stomachs obtained from a local slaughter house. Pigs were fasted overnight before slaughter. The gastric mucosa of four stomachs was rinsed with cold saturated NaCl solution for 3-5 min. The superficial cells, cell debris plus the mucus were wiped off with the edge of a plastic ruler and paper towels. The mucosa was scraped off. About 100 g of scrapings were divided into portions of 10 g and homogenized in 0.25 M sucrose with seven strokes in a Potter-Elvehjem Teflon-glass homogenizer. […] The pellet was discarded. The supernatant was centrifuged at 75,000 g for 1 h. The resulting microsomal pellet was homogenized in 30 ml 0.25 M sucrose. Aliquots of 15 ml were transferred to 100 ml centrifuge tubes and layered on top of step gradients, from the bottom comprising 25 ml 37% sucrose (w/v) and 45 ml 7.5% Ficoll (w/v) in 0.25 M sucrose. The tubes were centrifuged at 75,000 g for 1 h in a 6×100 ml ME angle rotor at 4° C. The gradient was then fractionated by pumping Fluoroinert 70 through narrow tubing in a fractionating cap down to the bottom of the tube. Fractions are collected from top through a center hole in the fractionating cap. The yield of vesicles in a typical preparation is about 50-75 mg protein. In order to maintain a stable vesicular structure for a long period of time, the vesicles were frozen at −70° C. under nitrogen, and could then be kept for several months without decrease of H^+/K^+-ATPase activity. The ATPase activity was measured at 37° C. as the release of inorganic phosphate (Pi) from ATP. […] Then, the medium of pH 6.0 is adjusted with HEPES/Tris buffer to pH 7.4. The enzyme reaction is started by addition of nigericin and Tris/ATP. The total reaction volume is 1 ml, containing 20 μg vesicular protein, 4 mM MgCl2, 10 mM KCl, 20 μM nigericin, 2 mM Tris-ATP, 10 mM HEPES and additionally 2 mM Pipes for the pre-incubation medium at pH 6.0. After […] at 37° C., the reaction is stopped by the addition of […] of 50% trichloroacetic acid. The denatured protein was spun down and the Pi content is determined according to Le Bel et al. (1978) and based on the reduction of a phosphomolybdate complex by p-methyl-aminophenol sulfate in a copper acetate buffer or according to Carter and Karl (1982) based on the reaction of phosphomolybdate with the basic dye malachite green. […] IC50 values of the test compound at different pH values were compared with IC50 values of the standard. Statistical differences (P<0.05) were calculated by Student's t-test.
# pyloric ligation ulcer = assay: Pyloric ligation ulcer model (antiulcer activity); type: in vivo, rat; settings: rats, oral 30 min prior to pyloric ligation, 4 h, compounds 100 mg/kg, omeprazole 40 mg/kg; for Free acid / Total acid: gastric contents
# Method: Pyloric ligation ulcer models were used to test each of compounds (2)-(4) for antiulcer activity. Male rats (140 and 175 g) were selected for pyloric ligation ulcer model experiments and divided into eleven groups consisting of six animals each. The rats were fasted overnight. One group received normal saline 2 ml/kg (negative control), the second group received omeprazole 40 mg/kg (positive control) and the other groups received each of the compounds (2)-(4) (100 mg/kg) by oral route 30 min prior to pyloric ligation. Animals were sacrificed 4 h later and their stomachs were opened to collect the gastric contents. The gastric contents were centrifuged at 1000 rpm for 10 min. One ml of the supernatant liquid was pipetted out and diluted to a total volume of 10 ml with distilled water. The solution was titrated against 0.01 N sodium hydroxide solution using Topfer's reagent to indicate the end point when the solution turned […]. The volume of NaOH consumed was taken as corresponding to the free acidity. Titration was further continued until the solution regained pink color. The volume of sodium hydroxide solution required to achieve the pink color was noted and total acidity calculated. After opening the stomach, the ulcer index was calculated.
# The results are expressed as mean±SEM. The difference between groups was determined using the one way analysis of variance (ANOVA) followed by Dunnett's test. P<0.05 was considered significant.
# [1] = test system: carrageenan-induced rat paw edema; assay: Carrageenan-induced rat paw edema; type: in vivo; settings: for % Protection / Increase in paw edema (ml) ± SEM: 10 μmol/kg s.c. 1 h prior to carrageenan; for % Protection: 4 h, relative to DMSO control; for Increase in paw edema (ml) ± SEM: increase between 0 h and 4 h; for Activity relative to indomethacin: 10 μmol/kg s.c., indomethacin = 100
# Method: Male albino rats weighing 120-150 g were used in these experiments. The rats were kept in an animal house under standard conditions of light and temperature with free access to food and water. The animals were randomly divided into groups of six rats each for each experimental and control group. The paw edema was induced by subplantar injection of […] of 2% carrageenan solution in saline (0.9%). […] A control group was injected with DMSO only. The volume of paw edema (ml) was determined by means of a plethysmometer immediately after carrageenan injection and 4 h later. The increase in paw volume between 0 h and 4 h after carrageenan injection was measured. The percentage protection against inflammation was calculated according to the following formula: % Protection=100%×(Vc−Vd)/Vc where Vc is the 4 h increase in paw volume in the control animals (control) and Vd is the 4 h increase in paw volume in the test animals. Data are expressed as the mean±SEM. Significant difference between the control and test groups was determined using Student's t-test and P values. The difference in results was considered significant when P<0.001.
# Human COX-2 = molecular target: T2, Human COX-2 (Homo sapiens, UniProt P35354); assay: Human COX-2 enzymatic assay; type: biochemical; settings: for IC50: 5 min pre-incubation, 45 min incubation with [14C]-arachidonic acid at 24° C.; for Approximate selectivity ratio COX-1/COX-2: ratio of COX-1 IC50 to COX-2 IC50
# T2 sequence (P35354 18-604): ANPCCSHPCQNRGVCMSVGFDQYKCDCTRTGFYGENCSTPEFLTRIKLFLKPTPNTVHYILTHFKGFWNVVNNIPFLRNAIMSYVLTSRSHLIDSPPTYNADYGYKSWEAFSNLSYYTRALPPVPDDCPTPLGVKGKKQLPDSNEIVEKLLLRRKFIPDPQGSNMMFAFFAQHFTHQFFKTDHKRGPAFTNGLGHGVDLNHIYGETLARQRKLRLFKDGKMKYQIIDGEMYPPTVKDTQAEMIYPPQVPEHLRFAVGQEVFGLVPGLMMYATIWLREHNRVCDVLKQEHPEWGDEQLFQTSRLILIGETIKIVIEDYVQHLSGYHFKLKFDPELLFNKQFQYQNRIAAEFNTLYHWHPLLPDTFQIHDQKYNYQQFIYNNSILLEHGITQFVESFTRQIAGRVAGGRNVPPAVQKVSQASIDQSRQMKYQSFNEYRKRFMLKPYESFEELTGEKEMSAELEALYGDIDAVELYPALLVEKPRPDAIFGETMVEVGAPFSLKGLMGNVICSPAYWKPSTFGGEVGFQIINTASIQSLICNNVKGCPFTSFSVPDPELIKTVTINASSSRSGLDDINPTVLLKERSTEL
# Method: (§1) Human COX-1 and COX-2 activities were determined as described by Wakitani et al. 0.2 ml of 100 mmol Tris HCl buffer (pH 8) containing hematin (2 mmol) and tryptophan (5 mmol) as cofactors. The reaction mixture was pre-incubated with each test compound individually for 5 min at 24° C. [14C]-arachidonic acid (100.00 dpm, 30 mmol) was added to the mixture and then incubated for 2 min (for COX-1) or 45 min (for COX-2) at 24° C. The reaction was stopped by the addition of 400 μl of a solution composed of Et2O/MeOH/1 M citric acid (30:4:1, v/v/v). After centrifugation of the mixture at 1700×/g for 5 min at 4° C., 50 μl of the upper phase was applied to a thin layer chromatography plate. Thin layer chromatography was performed at 4° C. with solvent system of Et2O/MeOH/AcOH (90:2:0.1, v/v/v). Enzyme activity was calculated from the percent conversion of arachidonic acid to PGH2 and its de-composition products, using radiometric photographic system.
# Human COX-1 = Human COX-1 (Homo sapiens, UniProt P23219); assay: Human COX-1 enzymatic assay; type: biochemical; settings: 5 min pre-incubation, 2 min incubation with [14C]-arachidonic acid at 24° C.
# Sequence of Human COX-1 (P23219 24-599): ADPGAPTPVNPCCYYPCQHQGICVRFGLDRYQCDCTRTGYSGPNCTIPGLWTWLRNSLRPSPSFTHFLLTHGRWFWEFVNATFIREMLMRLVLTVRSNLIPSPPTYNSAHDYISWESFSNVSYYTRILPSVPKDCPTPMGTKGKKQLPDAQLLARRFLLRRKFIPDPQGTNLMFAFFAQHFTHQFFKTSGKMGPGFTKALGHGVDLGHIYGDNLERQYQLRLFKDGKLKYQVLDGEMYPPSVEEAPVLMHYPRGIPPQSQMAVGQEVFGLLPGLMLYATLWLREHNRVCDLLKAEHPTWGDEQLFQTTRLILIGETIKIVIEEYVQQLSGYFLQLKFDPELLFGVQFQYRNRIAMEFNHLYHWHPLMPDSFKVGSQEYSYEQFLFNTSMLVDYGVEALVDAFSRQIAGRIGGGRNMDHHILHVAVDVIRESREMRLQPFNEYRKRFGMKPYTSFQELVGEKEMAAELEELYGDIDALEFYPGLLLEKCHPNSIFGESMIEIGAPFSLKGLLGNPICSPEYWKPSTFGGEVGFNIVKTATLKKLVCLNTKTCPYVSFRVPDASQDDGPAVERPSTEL
# Method: as §1
# [2] = test system: cotton pellet-induced granuloma; assay: Cotton pellet-induced granuloma bioassay; type: in vivo, rat; settings: for ED50: rat cotton pellet granuloma; for The anti-inflammatory activity ED50: rat, compound-impregnated cotton pellets implanted s.c., 7 days, dose response 4, 7, 10 and 15 μmol
# Method: An animal model cotton pellet-induced granuloma bioassay was used to determine ED50 for the compounds (2)-(4). Adult male Sprague Dawley rats (120-140 g), were used in the cotton pellet-induced granuloma bioassays. The rats were acclimated one week prior to use and allowed unlimited access to standard rat chow and water. Prior to the start of the experiment, the animals were randomly divided into groups of six rats each. Cotton pellet (35±1 mg) cut from dental rolls were impregnated with 0.2 ml (containing 0.01 mmol) of a solution of each of compounds (2)-(4) in chloroform, and the solvent was allowed to evaporate. Each cotton pellet was subsequently injected with 0.2 ml of an aqueous solution of antibiotics (1 mg penicillin G and 1.3 mg dihydrostreptomycin/ml). Two pellets were implanted subcutaneously, one in each axilla of the rat, under mild general anesthesia. One group of animals received the standard reference pharmaceutical indomethacin and the antibiotics at the same level. Pellets containing only the antibiotics were similarly implanted in control rats. Seven days later, the animals were sacrificed and the two cotton pellets, with adhering granulomas, were removed, dried for 48 h at 60° C. and weighed. The increment in dry weight (difference between the initial and final weight) was taken as a measure of the dry weight of granuloma±SEM. The dry weight of granuloma and the percentage reduction in dry weight of granuloma relative to the respective control value were calculated for all rats. The ED50 values were determined through dose response curves using doses of 4, 7, 10 and 15 μmol for each compound.
# Acute toxicity in mice = settings: mouse, in vivo; male mice; route for the LD50 not stated (oral and intraperitoneal tests described)
# Method: […]. The animals were divided into groups of six mice each. The compounds were given orally, suspended in 1% gum acacia, in doses of 1, 10, 100, 200, 250, 300 mg/kg.
# The mortality percentage in each group was recorded after 24 h.
# Additionally, the test compounds were investigated for their parenteral acute toxicity in groups of six mice each as reported earlier. The compounds, or their vehicle propylene glycol (control), were given by intraperitoneal injection in doses of 10, 25, 50, 75, 100 mg/kg. The percentage survival was followed up to seven days.
Structure (SMILES),IC50 (H+/K+-ATPase) [µM],Free acid (pyloric ligation ulcer) [mEq/L],Total acid (pyloric ligation ulcer) [mEq/L],Ulcer Index (pyloric ligation ulcer),% Protection [1] [%],Increase in paw edema (ml) ± SEM [1] [mL],Activity relative to indomethacin [1],IC50 (Human COX-2) [µM],Approximate selectivity ratio COX-1/COX-2 (Human COX-2),IC50 (Human COX-1) [µM],ED50 [2] [µmol],The anti-inflammatory activity ED50 [2] [µmol],LD50 (Acute toxicity in mice) [mg/kg],The anti-inflammatory activity ED50 ([2]; listed as indomethacin) [µmol]
"CC1(C(=O)O)CCC2(C)CCC3(C)C(=CC(=O)C4C5(C)C/C(=C\c6ccc(F)cc6)C(=O)C(C)(C)C5CCC43C)C2C1 (stereo not drawn) [Compound 2, 2-(4-fluorobenzylidene)-3,11-dioxo-18β-olean-12-en-30-oic acid]",11.46 ± 0.009,0.09,0.09,1.16,98.40,0.0157 ± 0.0004,132.09,0.109,2733.94,298,1.52,1.52 ± 0.0019,3100,–
"Cn1nc2c(c1-c1ccc(F)cc1)CC1(C)C(CCC3(C)C1C(=O)C=C1C4CC(C)(C(=O)O)CCC4(C)CCC13C)C2(C)C (stereo not drawn) [Compound 3, 2-(4-fluorobenzylidene)-3,11-dioxo-18β-olean[3,2-c]-1′H-5′-(4-fluorophenyl)-N-methylpyrazoline-12-en-30-oic acid]",10.03 ± 0.0072,0.08,0.08,1.12,98.49,0.0148 ± 0.0003,132.21,0.091,3438.57 and 3428.57,312,1.47,1.47 ± 0.0021,3360,–
"Cn1nc2c(c1-c1ccc(F)cc1)CC1(C)C(CCC3(C)C1C(=O)C=C1C4CC5(C)CC(OC5=O)C4(C)CCC13C)C2(C)C (stereo not drawn) [Compound 4, 2-(4-fluorobenzylidene)-3,11-dioxo-18β-olean[3,2-c]-1′H-5′-(4-fluorophenyl)-N-methylpyrazoline-12-en-30-oic acid (30→22β) lactone]",9.21 ± 0.0076,0.06,0.06,1.04,98.77,0.0121 ± 0.0002,132.58,0.087,3965.52,345,1.35,1.35 ± 0.0034,3460,–
"COc1ccc2c(c1)c(CC(=O)O)c(C)n2C(=O)c1ccc(Cl)cc1 [Indomethacin, reference compound]",–,–,–,–,–,0.25 ± 0.0005,–,–,–,–,–,9.568 ± 0.098,–,9.568
"COc1ccc2[nH]c([S+]([O-])Cc3ncc(C)c(OC)c3C)nc2c1 (stereo not shown) [Omeprazole, reference compound]",66.1 ± 1.11,0.43,0.33,3.31,–,–,–,–,–,–,–,–,–,–
